According to patent US5053226A, “Monoclonal antibodies binding platinum complexes” (Board of Regents, The University of Texas System, priority 1987, dated 1991):

Legend:
[1] = target: monoclonal antibody from hybridoma 1C1 H2 A5; experiment: Competitive ELISA of platinum compounds for binding to 1C1 H2 A5 monoclonal antibody; design: species or system mouse; settings: for concentration of agent which decreased the antibody binding to 50% of control: MOAB 1C1 H2 A5, immobilized DACH Pt complex in microtiter wells
Description: A DACH Pt complex was immobilized on the surface of microtiter wells.
A DACH Pt complex was immobilized on the surface of microtiter wells, to which MOAB binding was measured.
A competitive ELISA assay using monoclonal antibody specific for platinum (II) complex was performed. Monoclonal antibody from hybridoma 1C1 H2 A5 was added to microtiter wells having an immobilized DACH Pt complex. The MOAB was added either with no free platinum complex (control) or with increasing amounts of free MIDP platinum complex. Additionally, three compounds (designated A, B and C), whose identities were best unknown at that time, were added in parallel to the MIDP competition study. As shown in FIG. 10 the competition of compound A was quite similar to that of MIDP. Compound B (FIG. 11) was less similar to MIDP and compound C (FIG. 12) was least like MIDP although still being inhibitory of MOAB binding. The concentration of each agent which decreased the antibody binding to 50% of control was: MIDP=lug; A=2ug; B=4ug and C=200ug.

[2] = test system: human breast carcinoma cells (MCF-7); experiment: MTT assay; cytotoxicity on MCF-7 breast carcinoma cells; type: cell-based; settings: MCF-7, 72 hrs
Description: Eight thousand MCF-7 cells were seeded per well and an MTT dye viability test performed.
In order to determine whether the MIDP/MOAB complex retained antiproliferative activity against cells in culture, the antibody (2 mg) was incubated with 200 ug of MIDP platinum complex for 24 hrs. The MOAB/MIDP solution was then dialyzed for 4 hrs at 4° C. against phosphate-buffered saline (PBS). The dialysate was then analyzed for total platinum by atomic absorption spectrometry. The monoclonal antibody/MIDP complex was then added to human breast carcinoma cells (MCF-7) in concentrations between 0.01 and 10 ug Pt/ml. As a control on the same plates, MIDP was also added at equal platinum concentrations. At 72 hrs after treatment, the wells were assessed for viable cells by MTT assay.
**Cell survival was determined using the tetrazolium dyebinding method
(MTT) which dye reacts only with living cells.

[3] = test system: L1210 leukemia; settings: mice, multi-dose administration; cited from earlier work
[4] = test system: B16 melanoma; settings: mice, multi-dose administration; cited from earlier work
[5] = test system: cells resistant to cisplatin; settings: cited from earlier work
[6] = in vivo; cited from earlier work

SMILES	concentration of agent which decreased the antibody binding to 50% of control [1] [µg]	binding to the antibody relative to compound C ([1]; relative to compound C)	amount needed to compete at a level with MIDP ([1]; relative to MIDP)	Percent of Control Cell survival ([2]; MIDP concentration 0.019 ug/ml) [%]	Percent of Control Cell survival ([2]; MIDP concentration 0.039 ug/ml) [%]	Percent of Control Cell survival ([2]; MIDP concentration 0.078 ug/ml) [%]	Percent of Control Cell survival ([2]; MIDP concentration 0.156 ug/ml) [%]	Percent of Control Cell survival ([2]; MIDP concentration 0.312 ug/ml) [%]	Percent of Control Cell survival ([2]; MIDP concentration 0.625 ug/ml) [%]	Percent of Control Cell survival ([2]; MIDP concentration 1.25 ug/ml) [%]	Percent of Control Cell survival ([2]; MIDP concentration 2.5 ug/ml) [%]	Percent of Control Cell survival ([2]; MIDP concentration 5 ug/ml) [%]	Percent of Control Cell survival ([2]; MIDP concentration 10 ug/ml) [%]	concentration required for 50% inhibition of cell growth ([2]; MTT, platinum concentration) [µg/mL]	treatment of L1210 leukemia [3]	treatment of B16 melanoma [4]	cross-resistance [5]	renal toxicity [6]
NC1CCCCC1N.O=C([O-])C1(C(=O)[O-])CCC1.[Pt+2] [Compound B, DACH Pt(II) 1,1-dicarboxylatocyclobutane]	4	about 50 fold	–	–	–	–	–	–	–	–	–	–	–	–	–	–	–	–
N.N.O=C([O-])C1(C(=O)[O-])CCC1.[Pt+2] [Compound C, diamine Pt(II) 1,1-dicarboxylatocyclobutane]	200	–	100-200 times	–	–	–	–	–	–	–	–	–	–	–	–	–	–	–
CN(CC(=O)[O-])CC(=O)[O-].NC1CCCCC1N.[Pt+2] [MIDP, methylimino-diacetato-1,2-diaminocyclohexane platinum (II)]	2	–	–	86.9	84.3	72.4	45.5	32.3	17.0	18.5	15.2	10.8	8.3	0.15	curative	curative	not to display cross-resistance	does not induce renal toxicity
